Assays:
[1] = biological target: T1, Sodium- and chloride-dependent GABA transporter 2 (Homo sapiens) (UniProt Q9NSD5); assay: Inhibition of human GAT2 expressed in CHO cells assessed as reduction in [3H]GABA uptake at 100 uM after 20 mins by liquid scintillation counting analysis relative to control; assay type: cell-based
T1 sequence (whole entry): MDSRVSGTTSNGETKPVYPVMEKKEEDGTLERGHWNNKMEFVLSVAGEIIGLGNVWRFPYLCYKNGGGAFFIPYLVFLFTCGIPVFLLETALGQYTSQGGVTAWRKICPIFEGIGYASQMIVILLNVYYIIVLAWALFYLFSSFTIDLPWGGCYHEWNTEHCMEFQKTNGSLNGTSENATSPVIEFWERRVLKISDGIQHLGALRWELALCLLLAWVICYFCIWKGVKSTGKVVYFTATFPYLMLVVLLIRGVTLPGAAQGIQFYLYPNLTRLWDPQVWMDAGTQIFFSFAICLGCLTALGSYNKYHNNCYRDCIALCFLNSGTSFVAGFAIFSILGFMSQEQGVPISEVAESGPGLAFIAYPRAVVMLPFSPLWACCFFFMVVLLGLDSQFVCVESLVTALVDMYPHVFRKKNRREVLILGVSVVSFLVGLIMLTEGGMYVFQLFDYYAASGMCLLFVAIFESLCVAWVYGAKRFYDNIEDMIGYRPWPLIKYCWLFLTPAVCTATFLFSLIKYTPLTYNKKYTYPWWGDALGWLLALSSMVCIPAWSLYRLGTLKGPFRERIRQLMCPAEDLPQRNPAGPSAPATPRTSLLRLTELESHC

[2] = biological target: T2, Sodium- and chloride-dependent GABA transporter 3 (Homo sapiens) (UniProt P48066); assay: Inhibition of human GAT3 expressed in CHO cells assessed as reduction in [3H]GABA uptake at 100 uM after 20 mins by liquid scintillation counting analysis relative to control; assay type: cell-based
T2 sequence (whole entry): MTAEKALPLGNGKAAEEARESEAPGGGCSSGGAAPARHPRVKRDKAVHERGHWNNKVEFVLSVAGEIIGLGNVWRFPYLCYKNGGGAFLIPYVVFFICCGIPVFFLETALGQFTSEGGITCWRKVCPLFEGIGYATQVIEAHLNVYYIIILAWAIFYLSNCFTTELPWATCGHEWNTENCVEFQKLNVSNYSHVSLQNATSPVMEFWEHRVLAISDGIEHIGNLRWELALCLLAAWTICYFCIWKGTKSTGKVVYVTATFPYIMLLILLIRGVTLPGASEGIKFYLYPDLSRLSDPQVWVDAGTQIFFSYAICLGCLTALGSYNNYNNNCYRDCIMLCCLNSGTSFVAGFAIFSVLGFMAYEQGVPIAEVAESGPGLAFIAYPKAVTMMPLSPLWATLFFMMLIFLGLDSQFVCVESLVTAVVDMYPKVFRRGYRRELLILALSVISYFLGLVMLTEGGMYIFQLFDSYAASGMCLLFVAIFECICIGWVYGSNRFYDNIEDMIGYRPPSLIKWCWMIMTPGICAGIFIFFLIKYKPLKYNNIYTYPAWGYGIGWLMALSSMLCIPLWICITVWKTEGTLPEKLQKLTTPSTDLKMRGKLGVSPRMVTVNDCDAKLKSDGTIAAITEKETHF

[3] = biological target: T3, Sodium- and chloride-dependent betaine transporter (Homo sapiens) (UniProt P48065); assay: Inhibition of human BGT1 expressed in CHO cells assessed as reduction in [3H]GABA uptake at 100 uM after 20 mins by liquid scintillation counting analysis relative to control; assay type: cell-based
T3 sequence (whole entry): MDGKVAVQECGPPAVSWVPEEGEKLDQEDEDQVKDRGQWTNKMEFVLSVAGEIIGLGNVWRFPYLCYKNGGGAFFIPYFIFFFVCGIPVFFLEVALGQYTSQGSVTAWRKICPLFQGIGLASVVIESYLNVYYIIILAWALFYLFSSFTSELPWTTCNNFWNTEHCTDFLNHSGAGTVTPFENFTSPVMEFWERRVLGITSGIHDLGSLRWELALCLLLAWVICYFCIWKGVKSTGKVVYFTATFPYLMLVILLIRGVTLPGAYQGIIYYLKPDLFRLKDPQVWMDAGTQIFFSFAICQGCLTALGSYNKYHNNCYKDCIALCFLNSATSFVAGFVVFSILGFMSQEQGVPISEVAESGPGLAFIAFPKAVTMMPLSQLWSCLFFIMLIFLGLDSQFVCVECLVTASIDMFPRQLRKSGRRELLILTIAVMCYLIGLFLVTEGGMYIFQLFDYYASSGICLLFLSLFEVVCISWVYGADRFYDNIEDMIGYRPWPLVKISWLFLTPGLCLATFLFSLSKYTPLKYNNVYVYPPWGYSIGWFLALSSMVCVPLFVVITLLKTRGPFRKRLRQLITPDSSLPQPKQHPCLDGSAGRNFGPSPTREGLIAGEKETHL

Homo sapiens = species: Homo sapiens; assay: Selectivity for human BGT1 over human GAT3
[4] = biological target: Sodium- and chloride-dependent GABA transporter 1 (Homo sapiens) (UniProt P30531); assay: Inhibition of human GAT1 expressed in CHO cells assessed as reduction in [3H]GABA uptake at 100 uM after 20 mins by liquid scintillation counting analysis relative to control; assay type: cell-based
Sequence of Sodium- and chloride-dependent GABA transporter 1 (Homo sapiens) (P30531 whole entry, looked up): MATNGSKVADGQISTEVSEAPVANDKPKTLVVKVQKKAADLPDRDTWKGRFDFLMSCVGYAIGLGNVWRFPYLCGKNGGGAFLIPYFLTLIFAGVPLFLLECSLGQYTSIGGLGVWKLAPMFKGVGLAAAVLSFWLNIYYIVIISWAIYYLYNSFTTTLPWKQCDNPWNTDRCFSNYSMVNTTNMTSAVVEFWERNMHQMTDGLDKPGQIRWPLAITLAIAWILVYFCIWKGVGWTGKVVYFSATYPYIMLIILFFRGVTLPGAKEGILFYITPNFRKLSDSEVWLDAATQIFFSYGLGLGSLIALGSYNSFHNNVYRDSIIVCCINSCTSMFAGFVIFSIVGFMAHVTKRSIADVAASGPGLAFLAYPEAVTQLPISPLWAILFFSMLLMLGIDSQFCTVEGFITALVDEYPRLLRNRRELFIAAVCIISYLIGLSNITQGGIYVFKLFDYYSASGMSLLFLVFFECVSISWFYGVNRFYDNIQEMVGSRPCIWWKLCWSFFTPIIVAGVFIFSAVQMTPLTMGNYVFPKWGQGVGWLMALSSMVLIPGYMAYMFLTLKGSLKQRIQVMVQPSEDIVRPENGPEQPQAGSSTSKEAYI

Row | Structure (SMILES) | inhibition [1] [%] | inhibition [2] [%] | inhibition [3] [%] | Selectivity ratio (Homo sapiens) | inhibition [4] [%]
1 | C=C[C@@H](C(=O)O)[C@@H]1C[C@H]1N | -9.5 | -3.6 | – | – | –
2 | [N-]=[N+]=N[C@@H](C(=O)O)[C@@H]1C[C@H]1N | 6.8 | 11.8 | 57.2 | 5 to 7 | –
3 | CC[C@H](C(=O)O)[C@@H]1C[C@H]1N | -2.4 | – | -1.3 | – | 12.2
4 | CC[C@@H](C(=O)O)[C@@H]1C[C@H]1N | 3.3 | -2.4 | 13.4 | – | 8.6
5 | C[C@@H](C(=O)O)[C@@H]1C[C@H]1N | -5.2 | 9.3 | 62.7 | 5 to 7 | 4.3
6 | N[C@@H]1C[C@H]1[C@@H](O)C(=O)O | 20.1 | 8.3 | 44.7 | 5 to 7 | –
7 | N[C@@H]1C[C@H]1[C@@H](F)C(=O)O | 45.3 | 5.2 | 22.2 | – | –
8 | C[C@H](C(=O)O)[C@@H]1C[C@H]1N | – | 25.6 | 57.3 | – | 0

— ChEMBL document CHEMBL4265902, “Design and synthesis of cyclopropane-based conformationally restricted GABA analogues as selective inhibitors for betaine/GABA transporter 1” (Bioorg Med Chem Lett, 2018)
